In PMC6234094 (Bioorganic & medicinal chemistry, 2018):

How the values were obtained:
QscR [1] = biological target: T1, QscR (Pseudomonas aeruginosa, UniProt G3XD77); experiment: QscR agonism, E. coli JLD271; type: cell-based; details: for QscR agonism, result in words: E. coli QscR reporter; for Reduction in potency relative to OdDHL (1) in QscR: ratio of EC50 to that of OdDHL, QscR reporter
QscR [2] = biological target: T1, QscR; experiment: QscR antagonism in competition with OdDHL, E. coli reporter assay; type: cell-based
LasR [3] = details: cited from earlier work
LasR [4] = biological target: T2, LasR (Pseudomonas aeruginosa, UniProt P25084); experiment: LasR agonism, E. coli JLD271; type: cell-based; details: for Loss in potency (EC50) relative to OdDHL (1) in LasR: ratio of EC50 to that of OdDHL, LasR reporter
T2 sequence (P25084 whole entry): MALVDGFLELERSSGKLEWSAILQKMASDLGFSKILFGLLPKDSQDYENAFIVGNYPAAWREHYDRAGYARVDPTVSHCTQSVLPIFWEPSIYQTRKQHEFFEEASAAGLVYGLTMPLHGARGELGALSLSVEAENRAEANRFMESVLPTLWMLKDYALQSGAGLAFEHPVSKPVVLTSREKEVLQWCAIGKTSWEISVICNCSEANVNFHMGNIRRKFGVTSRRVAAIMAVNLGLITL

LasR [5] = biological target: T2, LasR; experiment: LasR antagonism in competition with OdDHL, E. coli reporter assay; type: cell-based; details: dose response in competition against OdDHL (1)
QscR [6] = biological target: T1, QscR; details: cited from earlier work

SMILES | QscR agonism, result in words (QscR [1]) | LasR agonism, result in words (earlier report) (LasR [3]) | Reduction in potency relative to OdDHL (1) in QscR (QscR [1]) | Loss in potency (EC50) relative to OdDHL (1) in LasR (LasR [4]) | also measured
CCCCCCCCCC(=O)CC(=O)NCC1CCCO1 (centres unmarked) [Compound 9] | negligible activity | – | – | – | IC50 (QscR [2]): > 250 µM
CCCCCCCCCC(=O)CC(=O)N[C@H]1CCCC1=O [Compound 5] | – | retained agonistic activity in LasR but was not nearly as potent as OdDHL | ~ 55 fold | 10–20 fold | –
CCCCCCCCCC(=O)CC(=O)N[C@H]1CCNC1=O [Compound 4] | – | – | > 200 fold | 10–20 fold | Potency in LasR relative to OdDHL based on EC50 (earlier report) (LasR [3]; less potent than OdDHL): about 100 fold
CCCCCCCCCC(=O)CC(=O)N[C@H]1CCOC1 [Compound 7] | – | – | – | 600 fold | –
CCCCCCCCCC(=O)CC(=O)O[C@H]1CCOC1=O [Compound 11] | – | – | – | – | IC50 (QscR [2]): > 250 µM
CCCCCCCCCCCS(=O)(=O)N[C@H]1CCOC1=O [Compound 10] | weak agonistic activity | – | – | – | LasR activity, result in words (earlier report) (LasR [3]): inactive; LasR antagonism, result in words (LasR [5]): failed to antagonize LasR; LasR agonism, result in words (LasR [4]; E. coli LasR reporter): inactive; QscR activity, result in words (earlier report) (QscR [6]): mild agonist
CCCCCCCCCC(=O)CC(=O)NC1CCCC1 [Compound 6] | – | some agonistic activity | 24 fold | 100 fold | –
CCCCCCCCCC(=O)CC(=O)N[C@H]1CCSC1=O [Compound 3] | – | agonize LasR comparably to OdDHL | five-fold less potent | – | –
CCCCCCCCCC(=O)CC(=O)N[C@H]1CCO[C@@H]1O [Compound 8] | very weak QscR agonist | – | – | ~ 1200 fold | Concentration at which LasR is agonized (earlier report) (LasR [3]; only at very high concentrations): 400 µM
